Measurements as given in article PMC6247689, “Determination of the volatile and polyphenol constituents and the antimicrobial, antioxidant, and tyrosinase inhibitory activities of the bioactive compounds from the by-product of Rosa rugosa Thunb. var. plena Regal tea” (BMC Complementary and Alternative Medicine, 2018).
In brackets after ≈: the same amount, converted by molar mass. Read-outs that look alike come from different tables or passages of the source.

Key:
[1] = DPPH radical scavenging activity; details: 30 min in the dark, 517 nm; positive control = ascorbic acid
Method: The antioxidant activity of RFCS and the standards were evaluated by DPPH radical scavenging activity using a slightly modified version of a previously reported method. […] Aliquots (100 μL) of the supernatants were transferred into a 96-well microplate, and the absorbance of each was recorded at 517 nm using a Spectramax Plus384 UV-Vis spectrophotometer (Molecular Devices, Sunnyvale, California, USA). […] The IC50 values, which represent the concentrations of rose samples and standard substance at which 50% of the DPPH radical was inhibited, were determined. The tests were performed in triplicate, and the percentage of DPPH scavenging was calculated using the following equation. Inhibition%=H0-H/H0×100 H:Absorbance of RFCS and the standards;H0:Absorbance of the blank

[2] = system: candida albicans (ATCC 10231); experiment: MIC and MFC, broth microdilution; type: cell-based; details: C. albicans; for MIC: 37 °C, 24 h
Method: (§1) The antimicrobial activity was measured by the method described by Xue. All standard strains were obtained from the Guangdong Microbiology Culture Center (Guangzhou, China). Listeria ivanovii (ATCC 19119) was cultured in BHI, Salmonella enteritidis enteritidis (ATCC 14028) Staphylococcus aureus (ATCC 25923) and Escherichia coli (ATCC 25922) were cultured in nutrient agar (NA) for 24 h and at 37 °C. candida albicans (ATCC 10231) was cultured in PHB at 37 °C for 24 h. Propionibacterium acnes (ATCC 6919) and Fusobacterium nucleatum (ATCC 10953) were cultured in CDC agar at 37 °C for 48 h in a YQX-II anaerobic incubator (Shanghai, China). The final cell counts in l mL of broth were approximately 10^6 colony-forming units (CFU/mL). A 10 mg/mL solution of miconazole nitrate and hydrochloride tetracycline in water was used as a positive control against fungi and bacteria, respectly.
(§2) The MIC and MBC or MFC values were determined as described previously by Xue. Briefly, 100 μL dilutions (approximately 100,000 CFU/mL) of Staphylococcus aureus, Escherichia coli, Salmonella enteritidis enteritidis, Fusobacterium nucleatum, and Candida albicans in nutrient broth and Listeria ivanovii and Propionibacterium acnes in GMA broth were inoculated into microtiter plates. Then, 100 μL aliquots of the solutions of the test compound were added after a two-fold serial dilution with nutrient broth (from 2 mg/mL to 3 μg/mL). Broths with 5% (v/v) DMSO were used as controls. The petri dishes were incubated at 37 °C for 24 h with the exception of Propionibacterium acnes and Fusobacterium nucleatum, which were incubated at 37 °C for 48 h. The MIC was recorded as the lowest concentration of sample showing no detectable growth. To determine the MBC or MFC values for no bacterial or fungus growth, 10 μL of sub-inhibitory concentrations of the test compounds were incubated on CDC or GMA agar plates for 24 or 48 h. Every determination was carried out in triplicate.

[3] = system: Salmonella enteritidis enteritidis (ATCC 14028); experiment: MIC and MBC, broth microdilution; type: cell-based; details: S. enteritidis enteritidis; for MIC: 37 °C, 24 h
Method: as §1, §2

[4] = system: Listeria ivanovii (ATCC 19119); experiment: MIC and MBC, broth microdilution; type: cell-based; details: L. ivanovii; for MIC: 37 °C, 24 h
Method: as §1, §2

[5] = system: Fusobacterium nucleatum (ATCC 10953); experiment: MIC and MBC, broth microdilution; type: cell-based; details: F. nucleatum; for MIC: anaerobic, 37 °C, 48 h
Method: as §1, §2

[6] = system: Staphylococcus aureus (ATCC 25923); experiment: MIC and MBC, broth microdilution; type: cell-based; details: S. aureus; for MIC: 37 °C, 24 h
Method: as §1, §2

[7] = system: Propionibacterium acnes (ATCC 6919); experiment: MIC and MBC, broth microdilution; type: cell-based; details: P. acnes; for MIC: anaerobic, 37 °C, 48 h
Method: as §1, §2

[8] = system: Escherichia coli (ATCC 25922); experiment: MIC and MBC, broth microdilution; type: cell-based; details: E. coli; for MIC: 37 °C, 24 h
Method: as §1, §2

[9] = biological target: mushroom tyrosinase; experiment: Tyrosinase inhibitory activity (spectrophotometric, DOPA substrate); type: biochemical; details: pH 6.8, 37 °C, 15 min, positive control = kojic acid
Method: The reaction mixture was vortexed and maintained at 37 °C for 15 min, and then the absorption maximum of dopachrome (set at 479 nm) was measured using a microplate reader (Molecular Devices, Sunnyvale, California, USA). The tests were performed in triplicate, and the value of tyrosinase inhibition activity was calculated as described above.

[10] = ABTS radical scavenging; details: 30 °C, 30 min; positive control = Trolox
Method: The ABTS assay of RFCS was performed according to a modified version of a previously reported method. Briefly, the stock solutions were generated by mixing equal quantities of 7.4 mM ABTS^●+ solution and 2.6 mM potassium persulfate solution, and the mixture was incubated at room temperature for 12 h in the dark. Then, the solution was equilibrated with 1 mL of ABTS^●+ solution with 50% ethanol serving as a positive control. The absorbance of the solution at 734 nm was 1.17 ± 0.02 units. […] The mixture was mixed vigorously and incubated at 30 °C for 30 min. The absorbance was then measured at […] using the spectrophotometer. […] Inhibition%=Absorbance of blank-Absorbance of sample/Absorbance of blank×100

[11] = Candida albicans, ATCC10231, read-out: MIC
[12] = Candida albicans, ATCC10231, read-out: MFC
[13] = Salmonella enterica, read-out: MIC
[14] = Salmonella enterica, read-out: MBC
[15] = Listeria ivanovii, ATCC19119, read-out: MIC
[16] = Listeria ivanovii, ATCC19119, read-out: MBC
[17] = Fusobacterium nucleatum, ATCC10953, read-out: MIC
[18] = Fusobacterium nucleatum, ATCC10953, read-out: MBC
[19] = Staphylococcus aureus, ATCC25923, read-out: MIC
[20] = Staphylococcus aureus, ATCC25923, read-out: MBC
[21] = Cutibacterium acnes, ATCC6919, read-out: MIC
[22] = Cutibacterium acnes, ATCC6919, read-out: MBC
[23] = Escherichia coli, ATCC25922, read-out: MIC
[24] = Escherichia coli, ATCC25922, read-out: MBC

With `C=CC(C)(O)CCC=C(C)C` (stereo not shown) [Linalool] the “DPPH radical scavenging activity IC50” value [1] was > 10,000 a μg/mL, the MIC [2, 11] was 250 mg/L (≈ 1620 µM) and the MFC [2, 12] was 1000 mg/L (≈ 6480 µM). The MIC [3, 13] was 500 mg/L (≈ 3240 µM), the MBC [3, 14] was greater than 1000 mg/L and the MIC [4, 15] was 500 mg/L (≈ 3240 µM). It also gave an MBC [4, 16] greater than 1000 mg/L, an MIC [5, 17] of 250 mg/L (≈ 1620 µM) and an MBC [5, 18] of 1000 mg/L (≈ 6480 µM). For the same compound, the MIC [6, 19] was 250 mg/L (≈ 1620 µM), the MBC [6, 20] was 1000 mg/L (≈ 6480 µM) and the MIC [7, 21] was 250 mg/L (≈ 1620 µM). For the same compound, the MBC [7, 22] was 1000 mg/L (≈ 6480 µM), the MIC [8, 23] was 250 mg/L (≈ 1620 µM) and the MBC [8, 24] was 1000 mg/L (≈ 6480 µM). For the same compound, the “Tyrosinase inhibition IC50” value [9] was 730 ± 44 a μg/mL and the “ABTS radical scavenging activity IC50” value [10] was > 10,000 a μg/mL.

With `OCCc1ccccc1` [Phenylethyl alcohol] the “DPPH radical scavenging activity IC50” value [1] was > 10,000 a μg/mL, the MIC [2, 11] was 250 mg/L (≈ 2050 µM) and the MFC [2, 12] was 500 mg/L (≈ 4090 µM). The MIC [3, 13] was 125 mg/L (≈ 1020 µM), the MBC [3, 14] was 500 mg/L (≈ 4090 µM) and the MIC [4, 15] was 250 mg/L (≈ 2050 µM). For the same compound, the MBC [4, 16] was 500 mg/L (≈ 4090 µM), the MIC [5, 17] was 8 mg/L (≈ 65.5 µM) and the MBC [5, 18] was 32 mg/L (≈ 262 µM). It also gave an MIC [6, 19] of 125 mg/L (≈ 1020 µM), an MBC [6, 20] of 250 mg/L (≈ 2050 µM) and an MIC [7, 21] of 125 mg/L (≈ 1020 µM). For the same compound, the MBC [7, 22] was 500 mg/L (≈ 4090 µM), the MIC [8, 23] was 250 mg/L (≈ 2050 µM) and the MBC [8, 24] was 1000 mg/L (≈ 8190 µM). The “Tyrosinase inhibition IC50” value [9] was 315 ± 13 b μg/mL and the “ABTS radical scavenging activity IC50” value [10] was > 10,000 a μg/mL.

For Kaempferol-3-O-Rutinoside, the “DPPH radical scavenging activity IC50” value [1] was 0.808 ± 0.024 c μg/mL, the MFC [2] was 1000 mg/L and the MIC [2] was 250 mg/L. It also gave an MBC [3] greater than 1000 mg/L, an MIC [3] of 500 mg/L and an MBC [4] of 1000 mg/L. It also gave an MIC [4] of 500 mg/L, an MBC [5] greater than 1000 mg/L and an MIC [5] of 500 mg/L. It also gave an MBC [6] of 1000 mg/L, an MIC [6] of 250 mg/L and an MBC [7] of 1000 mg/L. The MIC [7] was 500 mg/L, the MBC [8] was greater than 1000 mg/L and the MIC [8] was 500 mg/L. For the same compound, the Tyrosinase inhibition IC50 [9] was 0.908 ± 0.021 mg/L, the “Tyrosinase inhibition IC50” value ([9]; listed as kaempferol-3-O-rutinosid) was less than 1 mg/L and the “ABTS radical scavenging activity IC50” value [10] was 0.719 ± 0.016 c μg/mL.

With `C[C@@H]1O[C@@H](OC[C@H]2O[C@@H](Oc3c(-c4ccc(O)c(O)c4)oc4cc(O)cc(O)c4c3=O)[C@H](O)[C@@H](O)[C@@H]2O)[C@H](O)[C@H](O)[C@H]1O` [Rutin] the “DPPH radical scavenging activity IC50” value [1] was 0.715 ± 0.017 c μg/mL, the MIC [2, 11] was 500 mg/L (≈ 819 µM) and the MFC [2, 12] was 1000 mg/L (≈ 1640 µM). For the same compound, the MIC [3, 13] was 125 mg/L (≈ 205 µM), the MBC [3, 14] was 500 mg/L (≈ 819 µM) and the MIC [4, 15] was 500 mg/L (≈ 819 µM). The MBC [4, 16] was 1000 mg/L (≈ 1640 µM), the MIC [5, 17] was 62 mg/L (≈ 102 µM) and the MBC [5, 18] was 500 mg/L (≈ 819 µM). For the same compound, the MIC [6, 19] was 250 mg/L (≈ 409 µM), the MBC [6, 20] was 500 mg/L (≈ 819 µM) and the MIC [7, 21] was 125 mg/L (≈ 205 µM). It also gave an MBC [7, 22] of 250 mg/L (≈ 409 µM), an MIC [8, 23] of 250 mg/L (≈ 409 µM) and an MBC [8, 24] of 1000 mg/L (≈ 1640 µM). The Tyrosinase inhibition IC50 [9] was 0.856 ± 0.014 mg/L, the “Tyrosinase inhibition IC50” value ([9]; listed as rutin) was less than 1 mg/L and the “ABTS radical scavenging activity IC50” value [10] was 0.621 ± 0.024 c μg/mL.

`CN(C)[C@@H]1C(=O)C(C(N)=O)=C(O)[C@@]2(O)C(=O)C3=C(O)c4c(O)cccc4[C@@](C)(O)[C@H]3C[C@@H]12.Cl` [Hydrochloride tetracycline] gave an MIC [3] of 8 mg/L, an MBC [4] of less than 0.1 mg/L and an MIC [4] of less than 0.1 mg/L. For the same compound, the MBC [5] was 2 mg/L, the MIC [5] was 2 mg/L and the MIC [7] was 8 mg/L.
